Reference: patent US20250127868A1, “HYPERACTIVATING LIPID NANOPARTICLES” (Corner Therapeutics, Inc., priority 2022, published 2025)

Key:
Format in all cases: cell-based
[1] = tested on: human PBMCs; assay: IFNγ secretion by human PBMCs (ELISA); conditions: two days post-activation
Method: (§1) Isolation of PBMCs from Whole Blood. PBMCs were isolated from whole blood using density gradient centrifugation with Ficoll-Paque PLUS (Cytivia). Whole blood was diluted 1:1 with PBS, layered on top of Ficoll-Paque PLUS and centrifuged at 1000×g for 30 minutes at room temperature. PBMCs were collected, washed twice in PBS, and incubated with Ack lysis buffer (Lonza) to remove any remaining red blood cells.
(§2) Cell Culture and Stimulation. Immediately following isolation, PBMCs were plated in RPMI medium containing 10% FBS, 50 units/mL penicillin, […] streptomycin, 2 mM L-glutamine, 1 mM sodium pyruvate, and […] beta-mercaptoethanol (R10 media). […]
(§3) Endpoint Analyses. […] Half of the media volume in the wells was collected for cytokine quantification by Enzyme-Linked Immunosorbent Assay (ELISA) or Lumit™ Bioluminescent assay, while the remaining media and cells were used to quantify cell viability by assessing metabolic activity.
(§4) Quantification of Cytokine Secretion. IL-1β secretion from human PBMCs was assessed using one of the following kits: ELISA MAX Deluxe Set Human IL-1β kit (Biolegend), Invitrogen Human IL-1β kit, or the Lumit™ Human IL-1β Immunoassay (Promega). IFNγ secretion from human PBMCs was assessed using the ELISA MAX Deluxe Set Human IFNγ (Biolegend) and TNFα secretion from human PBMCs was assessed using the Human TNFα Uncoated ELISA kit (Invitrogen). […]

[2] = tested on: canine PBMCs; assay: IL-1β secretion by canine PBMCs (ELISA); conditions: two days post-activation, R848 1 μg/mL, 22:0 LYSO PC 82.5 μM, LPS 1 μg/mL, Alum 30 μg/mL
[3] = tested on: human PBMCs; assay: IL-1β secretion by human PBMCs (ELISA or Lumit); conditions: two days post-activation, R848 1 μg/mL, 22:0 LYSO PC 82.5 μM
Method: as §1, §2, §3, §4

| Molecule | IFNγ secretion, fold change per donor relative to R848 alone [1] | IL-1β secretion [2] | IL-1β secretion [3] |
| --- | --- | --- | --- |
| Nc1nc2c(ncn2[C@@H]2O[C@@H]3COP(=O)(O)O[C@H]4[C@@H](O)[C@H](n5cnc6c(N)ncnc65)O[C@@H]4COP(=O)(O)O[C@@H]2[C@@H]3O)c(=O)[nH]1 [2′3′cGAMP, reference compound] | neither GM-CSF nor 2′3′cGAMP elicited a substantial fold change in IFNγ secretion | neither GM-CSF nor 2′3′cGAMP induced significant IL-1β secretion | – |
| GM-CSF: human GM-CSF (Peprotech), added at 10 ng/ml | neither GM-CSF nor 2′3′cGAMP elicited a substantial fold change in IFNγ secretion | neither GM-CSF nor 2′3′cGAMP induced significant IL-1β secretion | did not induce levels of IL-1β secretion from human PBMCs significantly above background levels |
